Laboratory results as given in patent US20210215714A1, “COMPLEMENT ALTERNATIVE PATHWAY-ASSOCIATED NEPHROPATHY BIOMARKERS” (Achillion Pharmaceuticals, Inc., priority 2018, published 2021).

Key:
[1] = tested on: AP activity; assay: Wieslab assay (AP activity in vitro); format: biochemical
[2] = tested on: AP C3 convertase formation; assay: Phase 2a study: ex vivo serum Ba production; format: in vivo, human; conditions: 14-day treatment, patients A-F
Protocol: Systemic complement proteins were measured in serum and plasma including serum Ba, plasma Bb, serum C3, serum Factor D, serum C4, and % Fragment C3.

**Q.** `CC(=O)c1nn(CC(=O)N2C[C@H](F)C[C@H]2C(=O)Nc2cccc(Br)n2)c2ccc(-c3cnc(C)nc3)cc12` [Compound 1, (2S,4R)-1-(2-(3-acetyl-5-(2-methylpyrimidin-5-yl)-1H-indazol-1-yl)acetyl)-N-(6-bromopyridin-2-yl)-4-fluoropyrrolidine-2-carboxamide] was tested. Which IC50 [1] did it give?
**A.** 26 nM

**Q.** And the “Ex vivo serum Ba production” value [2]?
**A.** inhibited
